Data from ChEMBL document CHEMBL5360618, “PepScaf: Harnessing Machine Learning with In Vitro Selection toward De Novo Macrocyclic Peptides against IL-17C/IL-17RE Interaction” (J Med Chem, 2023).
Positions of bridges follow the written chain, without caps; N, C: chain ends. Non-standard residues stand in square brackets, D forms with d. Residues, ends and D or L forms follow the SMILES beside them. Ala(imidazol-2-yl) = N[C@@H](Cc1ncc[nH]1)C(=O)O

Molecular target: T1, IL17-RE-IL-17C (Homo sapiens, UniProt Q8NFR9+Q9P0M4)
T1 sequence (Q9P0M4 whole entry): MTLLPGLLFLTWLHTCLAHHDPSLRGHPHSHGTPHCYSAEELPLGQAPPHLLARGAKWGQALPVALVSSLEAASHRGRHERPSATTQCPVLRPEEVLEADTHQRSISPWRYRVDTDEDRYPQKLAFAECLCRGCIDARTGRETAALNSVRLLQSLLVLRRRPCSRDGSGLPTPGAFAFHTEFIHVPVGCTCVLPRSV
T1 sequence (Q8NFR9 whole entry): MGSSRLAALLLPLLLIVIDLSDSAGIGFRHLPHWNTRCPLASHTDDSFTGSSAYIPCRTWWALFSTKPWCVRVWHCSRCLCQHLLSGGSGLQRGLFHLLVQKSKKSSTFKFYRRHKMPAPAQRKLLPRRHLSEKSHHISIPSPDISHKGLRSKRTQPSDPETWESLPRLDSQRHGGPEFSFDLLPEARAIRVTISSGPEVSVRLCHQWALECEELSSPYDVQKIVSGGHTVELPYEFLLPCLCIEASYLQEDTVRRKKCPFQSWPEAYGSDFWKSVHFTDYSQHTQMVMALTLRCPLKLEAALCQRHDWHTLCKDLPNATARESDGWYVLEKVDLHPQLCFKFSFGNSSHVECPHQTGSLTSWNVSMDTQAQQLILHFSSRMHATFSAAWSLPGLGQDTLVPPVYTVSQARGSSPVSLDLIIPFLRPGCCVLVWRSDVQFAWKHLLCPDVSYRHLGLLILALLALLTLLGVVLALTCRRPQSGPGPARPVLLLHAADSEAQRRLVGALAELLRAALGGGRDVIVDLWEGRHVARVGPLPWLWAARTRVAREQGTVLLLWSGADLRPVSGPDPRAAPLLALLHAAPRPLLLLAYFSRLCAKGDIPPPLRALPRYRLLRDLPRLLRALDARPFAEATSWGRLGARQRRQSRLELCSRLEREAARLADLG
Assay: Inhibition of IL-17C/IL-17RE interaction (unknown origin) incubated for 1.5 hrs by ELISA method
Format: protein-complex assay

Compound	IC50 [nM]
CC[C@H](C)[C@@H]1NC(=O)[C@H](CCCNC(=N)N)NC(=O)[C@H](Cc2ccc(O)cc2)NC(=O)[C@H](Cc2ccc(O)cc2)NC(=O)[C@@H]2CCCN2C(=O)[C@H](Cc2c[nH]cn2)NC(=O)[C@H](Cc2ccc(O)cc2)NC(=O)CSC[C@@H](C(=O)NCC(N)=O)NC(=O)CNC(=O)[C@H](CC(C)C)NC(=O)[C@H](CCC(=O)O)NC(=O)CNC(=O)[C@H](Cc2ccc(O)cc2)NC(=O)[C@H](CC(C)C)NC1=O ({CH2CO}-YHPYYRILYGELGCG-NH2; thioether N-14)	> 30000
CC[C@H](C)[C@@H]1NC(=O)[C@H](CO)NC(=O)[C@H](Cc2ccc(O)cc2)NC(=O)[C@H](Cc2ccc(O)cc2)NC(=O)[C@H]([C@@H](C)CC)NC(=O)[C@H](Cc2c[nH]cn2)NC(=O)[C@H](CC(N)=O)NC(=O)[C@H](Cc2ccccc2)NC(=O)[C@H](Cc2ccccc2)NC(=O)[C@H](CCC(N)=O)NC(=O)[C@H](CC(=O)O)NC(=O)[C@H]([C@@H](C)CC)NC(=O)[C@H](Cc2ccc(O)cc2)NC(=O)CSC[C@@H](C(=O)NCC(N)=O)NC1=O ({CH2CO}-YIDQFFNHIYYSICG-NH2; thioether N-14)	14700
CC[C@H](C)[C@@H]1NC(=O)[C@H](CO)NC(=O)[C@H](Cc2ccc(O)cc2)NC(=O)[C@H]([C@@H](C)CC)NC(=O)[C@H]([C@@H](C)O)NC(=O)[C@H](CC(C)C)NC(=O)[C@H](CC(=O)O)NC(=O)[C@H]([C@@H](C)CC)NC(=O)[C@H](C(C)C)NC(=O)[C@H](Cc2ccc(O)cc2)NC(=O)[C@H](CC(=O)O)NC(=O)[C@H](CCCCN)NC(=O)[C@H](Cc2ccc(O)cc2)NC(=O)CSC[C@@H](C(=O)NCC(N)=O)NC1=O ({CH2CO}-YKDYVIDLTIYSICG-NH2; thioether N-14)	> 30000
CC(C)C[C@@H]1NC(=O)[C@H](CC(C)C)NC(=O)[C@H](CO)NC(=O)[C@H](CCC(=O)O)NC(=O)[C@H](CC(C)C)NC(=O)[C@H](Cc2ccc(O)cc2)NC(=O)CSC[C@@H](C(=O)NCC(N)=O)NC(=O)[C@H](Cc2ccc(O)cc2)NC(=O)[C@H](Cc2ccc(O)cc2)NC(=O)[C@H](CC(N)=O)NC(=O)[C@H](CC(N)=O)NC(=O)[C@H](CO)NC(=O)CNC1=O ({CH2CO}-YLESLLGSNNYYCG-NH2; thioether N-13)	> 30000
CC[C@H](C)[C@@H]1NC(=O)[C@H](CCCNC(=N)N)NC(=O)[C@H](Cc2ccc(O)cc2)NC(=O)[C@H](Cc2ccc(O)cc2)NC(=O)[C@H](Cc2c[nH]cn2)NC(=O)[C@H](CCC(N)=O)NC(=O)[C@H](Cc2ccc(O)cc2)NC(=O)CSC[C@@H](C(=O)NCC(N)=O)NC(=O)CNC(=O)[C@H](CC(C)C)NC(=O)[C@H](CCC(=O)O)NC(=O)CNC(=O)[C@H](Cc2ccc(O)cc2)NC(=O)[C@H](CC(C)C)NC1=O ({CH2CO}-YQHYYRILYGELGCG-NH2; thioether N-14)	> 30000
CC[C@H](C)[C@@H]1NC(=O)[C@H](CCCNC(=N)N)NC(=O)[C@H](Cc2ccc(O)cc2)NC(=O)[C@H](Cc2ccc(O)cc2)NC(=O)[C@H](Cc2c[nH]cn2)NC(=O)[C@H](CCCNC(=N)N)NC(=O)[C@H](Cc2ccc(O)cc2)NC(=O)CSC[C@@H](C(=O)NCC(N)=O)NC(=O)CNC(=O)[C@H](CC(C)C)NC(=O)[C@H](CCC(=O)O)NC(=O)CNC(=O)[C@H](Cc2ccc(O)cc2)NC(=O)[C@H](CC(C)C)NC1=O ({CH2CO}-YRHYYRILYGELGCG-NH2; thioether N-14)	> 30000
CC[C@H](C)[C@@H]1NC(=O)[C@@H]2CCCN2C(=O)[C@H](CCCNC(=N)N)NC(=O)[C@H](Cc2c[nH]c3ccccc23)NC(=O)[C@H](Cc2ccccc2)NC(=O)[C@H](CC(N)=O)NC(=O)[C@@H]2CCCN2C(=O)[C@H](Cc2ccccc2)NC(=O)[C@H](Cc2c[nH]c3ccccc23)NC(=O)[C@H](Cc2ccc(O)cc2)NC(=O)CSC[C@@H](C(=O)NCC(N)=O)NC(=O)[C@H](CC(N)=O)NC1=O ({CH2CO}-YWFPNFWRPINCG-NH2; thioether N-12)	> 30000
CC[C@H](C)[C@@H]1NC(=O)[C@H](Cc2c[nH]c3ccccc23)NC(=O)[C@H](CC(N)=O)NC(=O)[C@H](Cc2ccc(O)cc2)NC(=O)[C@H](Cc2ccc(O)cc2)NC(=O)CSC[C@@H](C(=O)NCC(N)=O)NC(=O)[C@H](CO)NC(=O)[C@H]([C@@H](C)O)NC(=O)[C@H](CC(N)=O)NC(=O)[C@H](Cc2ccc(O)cc2)NC(=O)[C@H](Cc2ccc(O)cc2)NC(=O)[C@H](Cc2ccccc2)NC(=O)[C@H](Cc2c[nH]cn2)NC(=O)[C@H](CC(=O)O)NC1=O ({CH2CO}-YYNWIDHFYYNTSCG-NH2; thioether N-14)	> 30000

These reach a lower IC50. Values come first.

IC50 [nM]	Compound
5.5	CC(C)C[C@@H]1NC(=O)[C@H](CC(N)=O)NC(=O)CNC(=O)[C@H](Cc2ccc(O)cc2)NC(=O)[C@H](CC(C)C)NC(=O)[C@H](CO)NC(=O)[C@H](Cc2ccc(O)cc2)NC(=O)[C@H](Cc2ccc(O)cc2)NC(=O)[C@H](Cc2ccc(O)cc2)NC(=O)[C@H](CC(C)C)NC(=O)[C@H](Cc2c[nH]cn2)NC(=O)[C@H](Cc2ccc(O)cc2)NC(=O)CSC[C@@H](C(=O)NCC(N)=O)NC(=O)CNC1=O ({CH2CO}-YHLYYYSLYGNLGCG-NH2; thioether N-14)
26.4	CC(C)C[C@@H]1NC(=O)[C@H](CC(N)=O)NC(=O)CNC(=O)[C@H](Cc2ccc(O)cc2)NC(=O)[C@H](CC(C)C)NC(=O)[C@H](CC(C)C)NC(=O)[C@H](CCCNC(=N)N)NC(=O)[C@H](Cc2ccc(O)cc2)NC(=O)[C@H](Cc2ccc(O)cc2)NC(=O)[C@H](CCC(N)=O)NC(=O)[C@H](Cc2c[nH]cn2)NC(=O)[C@H](Cc2ccc(O)cc2)NC(=O)CSC[C@@H](C(=O)NCC(N)=O)NC(=O)CNC1=O ({CH2CO}-YHQYYRLLYGNLGCG-NH2; thioether N-14)
10.4	CC(C)C[C@@H]1NC(=O)[C@H](CC(N)=O)NC(=O)CNC(=O)[C@H](Cc2ccc(O)cc2)NC(=O)[C@H](CC(C)C)NC(=O)[C@H](CO)NC(=O)[C@H](C(C)C)NC(=O)[C@H](Cc2ccc(O)cc2)NC(=O)[C@H](Cc2ccc(O)cc2)NC(=O)[C@H](CCC(N)=O)NC(=O)[C@H](Cc2c[nH]cn2)NC(=O)[C@H](Cc2ccc(O)cc2)NC(=O)CSC[C@@H](C(=O)NCC(N)=O)NC(=O)CNC1=O ({CH2CO}-YHQYYVSLYGNLGCG-NH2; thioether N-14)
8.1	CC(C)C[C@@H]1NC(=O)[C@H](CO)NC(=O)CNC(=O)[C@H](Cc2ccc(O)cc2)NC(=O)[C@H](CC(C)C)NC(=O)[C@H](CO)NC(=O)[C@H](C(C)C)NC(=O)[C@H](Cc2ccc(O)cc2)NC(=O)[C@H](Cc2ccc(O)cc2)NC(=O)[C@H](CCC(N)=O)NC(=O)[C@H](Cc2c[nH]cn2)NC(=O)[C@H](Cc2ccc(O)cc2)NC(=O)CSC[C@@H](C(=O)NCC(N)=O)NC(=O)CNC1=O ({CH2CO}-YHQYYVSLYGSLGCG-NH2; thioether N-14)
7.9	CC(C)C[C@@H]1NC(=O)[C@H](CO)NC(=O)CNC(=O)[C@H](Cc2ccc(O)cc2)NC(=O)[C@H](CC(C)C)NC(=O)[C@H](CO)NC(=O)[C@H](CCC(N)=O)NC(=O)[C@H](Cc2ccc(O)cc2)NC(=O)[C@H](Cc2ccc(O)cc2)NC(=O)[C@H](C(C)C)NC(=O)[C@H](Cc2c[nH]cn2)NC(=O)[C@H](Cc2ccc(O)cc2)NC(=O)CSC[C@@H](C(=O)NCC(N)=O)NC(=O)CNC1=O ({CH2CO}-YHVYYQSLYGSLGCG-NH2; thioether N-14)
5.4	CC(C)C[C@@H]1NC(=O)[C@H](CO)NC(=O)CNC(=O)[C@H](Cc2ccc(O)cc2)NC(=O)[C@H](CC(C)C)NC(=O)[C@H](CO)NC(=O)[C@H](CCCNC(=N)N)NC(=O)[C@H](Cc2ccc(O)cc2)NC(=O)[C@H](Cc2ccc(O)cc2)NC(=O)[C@H](C(C)C)NC(=O)[C@H](Cc2cnc[nH]2)NC(=O)[C@H](Cc2ccc(O)cc2)NC(=O)CSC[C@@H](C(=O)NCC(N)=O)NC(=O)CNC1=O ({CH2CO}-YHVYYRSLYGSLGCG-NH2; thioether N-14)
9	CC(C)C[C@@H]1NC(=O)[C@H](CO)NC(=O)[C@H](Cc2ccc(O)cc2)NC(=O)[C@H](Cc2ccc(O)cc2)NC(=O)[C@H](Cc2ccc(O)cc2)NC(=O)[C@H](C(C)C)NC(=O)[C@H](Cc2c[nH]cn2)NC(=O)[C@H](Cc2ccc(O)cc2)NC(=O)CSC[C@@H](C(=O)NCC(N)=O)NC(=O)CNC(=O)[C@H](CC(C)C)NC(=O)[C@@H]2CCCN2C(=O)CNC(=O)[C@H](Cc2ccc(O)cc2)NC1=O ({CH2CO}-YHVYYYSLYGPLGCG-NH2; thioether N-14)
3.3	CC(C)C[C@@H]1NC(=O)[C@H](CO)NC(=O)CNC(=O)[C@H](Cc2ccc(O)cc2)NC(=O)[C@H](CC(C)C)NC(=O)[C@H](CO)NC(=O)[C@H](Cc2ccc(O)cc2)NC(=O)[C@H](Cc2ccc(O)cc2)NC(=O)[C@H](Cc2ccc(O)cc2)NC(=O)[C@H](C(C)C)NC(=O)[C@H](Cc2c[nH]cn2)NC(=O)[C@H](Cc2ccc(O)cc2)NC(=O)CSC[C@@H](C(=O)NCC(N)=O)NC(=O)CNC1=O ({CH2CO}-YHVYYYSLYGSLGCG-NH2; thioether N-14)
11.8	CC(C)C[C@@H]1NC(=O)[C@H](C)NC(=O)[C@H](Cc2ccc(O)cc2)NC(=O)[C@H](Cc2ccc(O)cc2)NC(=O)[C@H](Cc2ccc(O)cc2)NC(=O)[C@H](CC(C)C)NC(=O)[C@H](Cc2ncc[nH]2)NC(=O)[C@H](Cc2ccc(O)cc2)NC(=O)CSC[C@@H](C(=O)NCC(N)=O)NC(=O)CNC(=O)[C@H](CC(C)C)NC(=O)[C@H](CC(N)=O)NC(=O)CNC(=O)[C@H](Cc2ccc(O)cc2)NC1=O ({CH2CO}-Y[Ala(imidazol-2-yl)]LYYYALYGNLGCG-NH2; thioether N-14)
